Measured values as given in BindingDB's records for doi:10.1021/bi00098a028 (Arizona State University, 1991).

target: T1, Purine nucleoside phosphorylase (Homo sapiens, UniProt P00491); test: Competitive Inhibition Assay
T1 sequence (P00491 whole entry): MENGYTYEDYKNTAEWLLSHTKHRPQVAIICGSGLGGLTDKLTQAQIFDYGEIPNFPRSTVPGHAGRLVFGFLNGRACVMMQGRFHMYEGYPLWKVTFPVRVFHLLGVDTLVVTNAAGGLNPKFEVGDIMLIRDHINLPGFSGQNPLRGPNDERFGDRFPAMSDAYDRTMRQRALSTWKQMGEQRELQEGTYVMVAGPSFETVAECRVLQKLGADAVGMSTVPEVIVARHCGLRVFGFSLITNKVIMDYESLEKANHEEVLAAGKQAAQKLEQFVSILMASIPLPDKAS
Excerpt: PNPase activity (guanosine to guanine and ribose 1-phosphate) was followed by measuring the decrease in absorbance at 268nm.

SMILES | Ki
O=c1[nH]cnc2cccc(O)c12 [Substituted Quinazolin-4(3H)-one, 13] | 576 µM
Cc1cc(O)c2nc[nH]c(=O)c2c1 [Substituted Quinazolin-4(3H)-one, 12] | 618 µM
O=c1[nH]cnc2c(O)cccc12 [Substituted Quinazolin-4(3H)-one, 14] | 593 µM

Stronger by Ki, values ahead:

Ki | SMILES
131 µM | Nc1ccc(O)c2c(=O)[nH]cnc12 [Substituted Quinazolin-4(3H)-one, 15]
337 µM | Nc1cccc2nc[nH]c(=O)c12 [Substituted Quinazolin-4(3H)-one, 9]
142 µM | O=c1[nH]cnc2c(O)ccc(O)c12 [Substituted Quinazolin-4(3H)-one, 11]
